Publication PMC10146491, “Meroterpenoids from Gongolaria abies-marina against Kinetoplastids: In Vitro Activity and Programmed Cell Death Study” (Pharmaceuticals, 2023)

Key:
[1] = system: intracellular form of L. infantum; parameters: method as in PMID 28126391; conditions: read-out: IC50 against the intracellular form of L. infantum; cited from earlier work
[2] = system: promastigotes of Leishmania infantum; parameters: method as in PMID 28126391; conditions: read-out: IC50 against promastigotes of Leishmania infantum; cited from earlier work
[3] = system: intracellular amastigotes of L. amazonensis; assay: In vitro effect against amastigote stage in infected macrophages; type: cell-based, Leishmania amazonensis; conditions: for Selectivity index (CC50/IC50), amastigotes of L. amazonensis: CC50 in murine macrophages; for IC50: Leishmania amazonensis, J774.A1, intracellular amastigotes in J774A.1 macrophages, 24 h treatment
Protocol: To determine the in vitro effect against the amastigote stage of L. amazonensis, murine macrophages were infected. In a sterile 96 well-plate, macrophages of the J774A.1 cell line were placed in RPMI 1640 to reach 10^5 macrophages per well. This plate was incubated at 37 °C in a 5% CO2 atmosphere. After one hour of incubation, 100 µL of stationary-phase promastigotes of 7-day-old culture was added in a 10:1 ratio (10^6 parasites per well) and the plates were re-incubated at 37 °C for 24 h to achieve maximum infection. Then, the wells were washed with fresh medium to remove non-phagocytosed promastigotes. The infected macrophages were treated with the compounds isolated for 24 h. Then, the medium was removed carefully to be replaced by 30 μL of 0.05% SDS and the plate was shaken for 30 s. After broke macrophages, 170 μL of Schneider’s medium was added to each well to give a final volume of 200 μL and 20 μL of Alamar Blue® was added to the plate being incubated at 26 °C for 72 h, as described by López-Arencibia et al. (2017). After 72 h of incubation, the plates were analyzed using the same protocol for the promastigote test.

[4] = Cytotoxicity assay (Alamar Blue); type: cell-based; conditions: mouse, J774A.1 murine macrophage cell line, J774A.1, 24 h, read-out: Cytotoxicity CC50, murine macrophages
Protocol: (§1) To carry out the experiments, promastigotes of Leishmania amazonensis (MHOM/BR/77/LTB0016) and L. donovani (MHOM/IN/90/GE1F8R) and epimastigotes of Trypanosoma cruzi (Y strain) were employed. Leishmania species were cultured in Schneider’s medium (Sigma-Aldrich, Madrid, Spain), supplemented with 10% fetal bovine serum (VWR, Biowest, Nuaillé, France) and incubated at 26 °C. RPMI 1640 medium (Gibco, Thermo Fisher, Madrid, Spain) with or without phenol red was also used to culture the parasites at the same temperature. Epimastigotes of T. cruzi were cultured in liver infusion tryptose (LIT) medium supplemented with 10% fetal bovine serum at 26 °C. A cytotoxicity assay was performed using a murine macrophage cell line J774A.1 (ATCC TIB-67), which was maintained in Dulbecco’s modified Eagle’s medium (Gibco, Thermo Fisher, Madrid, Spain) supplemented with 10% of fetal bovine serum at 37 °C in a 5% CO2 atmosphere.
In a sterile 96-well plate, murine macrophages of the cell line J774A.1 were placed to reach an amount of 10^5 cells per well using RPMI 1640 medium without phenol red. After murine macrophage attachment, 50 µL serial dilutions of the isolated compounds were added in each well until reaching a final volume of 100 µL. Next, 10% of Alamar Blue® was placed into each well and the plate was incubated for 24 h at 37 °C with a 5% CO2 atmosphere. Finally, the plates were analyzed using an EnSpire® Multimode Plate Reader (PerkinElmer, Madrid, Spain), as described in the previous section, and the 50% cytotoxic concentration (CC50) values were calculated.
(§2) The 50% inhibitory concentration (IC50) and 50% cytotoxic concentration (CC50) values were obtained using Sigma Plot 12.0 statistical analysis software (Systat Software) and calculated using a non-linear regression analysis with 95% confidence limits. Leishmanicidal and trypanocidal activity assays, as well as cytotoxicity assays, were performed three times on different days, and the results were expressed as means ± standard deviations. The analysis of variance was determined using a one-way ANOVA using the GraphPad.PRISM® 9.0 software program (GraphPad Software, San Diego, CA, USA). Differences at p < 0.05 were considered statistically significant.

[5] = system: promastigotes of L. donovani; assay: Leishmanicidal activity assay (Alamar Blue), promastigotes; type: cell-based, Leishmania donovani; conditions: for Selectivity index (CC50/IC50), L. donovani: CC50 in murine macrophages; for IC50: Leishmania donovani, 72 h, Alamar Blue, read-out: Antikinetoplastid activity IC50, L. donovani
Protocol: as §1
(§3) With the objective of determining the antiparasitic activity of the compounds isolated from G. abies-marina, leishmanicidal activity assays were performed against promastigote stages of L. amazonensis and L. donovani, as well as a trypanocidal activity assay performed against epimastigote stages of T. cruzi. In both parasites, a colorimetric assay was used based on the Alamar Blue reagent (Life Technologies, Madrid, Spain) as previously described by Bethencourt-Estrella et al. (2021).
(§4) In a sterile 96 well-plate, serial dilutions of the extracts, fractions or compounds isolated from G. abies-marina were performed in RPMI 1640 medium without phenol red (in the case of Leishmania spp.) or in LIT (in the case of T. cruzi) with a final volume of 100 µL. Parasites were added to wells to reach a concentration of 5 × 10^5 (Leishmania spp.) or 2.5 × 10^5 (T. cruzi) until a final volume of 200 µL/well. Next, 10% of Alamar Blue® was placed into each well and the plate was incubated for 72 h at 26 °C. Finally, the fluorescence of each well was measured using an EnSpire® Multimode Plate Reader (Perkin Elmer, Madrid, Spain) (544 nm excitation, 590 nm emission) and the concentration that inhibits 50% of the parasite population (IC50) was calculated using a non-linear regression analysis with 95% confidence limits. Miltefosine and benznidazol were used as reference drugs. To analyze the data and calculate the IC50, SigmaPlot 12.0 statistical analysis software (Systat Software Inc, Palo Alto, CA, USA) was used.
as §2

[6] = system: epimastigotes of Trypanosoma cruzi; assay: Trypanocidal activity assay (Alamar Blue), epimastigotes; type: cell-based; conditions: for Selectivity index (CC50/IC50), T. cruzi: CC50 in murine macrophages; for IC50: Trypanosoma cruzi, 72 h, Alamar Blue, read-out: Antikinetoplastid activity IC50, T. cruzi
Protocol: as §1, §3, §4, §2

[7] = system: L. amazonensis promastigotes; assay: Transmission electron microscopy, ultrastructural effects; type: cell-based, Leishmania amazonensis; conditions: IC90, 24 h
Protocol: (§5) The analysis of the ultrastructural and morphological damage caused by the compounds in the parasites was performed in collaboration with the Facultad de Estudios Superiores Iztacala (FESI), Medicina, UNAM (Mexico). These assays were performed after incubation of the promastigotes of L. amazonensis and epimastigotes of T. cruzi at the IC90 levels of the pure compounds over 24 h. TEM images were obtained using the conventional microscopy technique as previously described by Castelan-Ramirez et al. in a JEOL JEM-1011 transmission electron microscope (JEOL Ltd., Tokyo, Japan).

[8] = system: T. cruzi epimastigotes; assay: as above; type: cell-based, Trypanosoma cruzi; conditions: IC90, 24 h
Protocol: as §5

[9] = system: promastigotes of L. amazonensis; assay: Leishmanicidal activity assay (Alamar Blue), promastigotes; type: cell-based, Leishmania amazonensis; conditions: for Selectivity index (CC50/IC50), L. amazonensis: CC50 in murine macrophages; for IC50: Leishmania amazonensis, 72 h, Alamar Blue, read-out: Antikinetoplastid activity IC50, L. amazonensis
Protocol: as §1, §3, §4, §2

[10] = system: L. amazonensis promastigotes; assay: ATP level analysis (Cell Titer-Glo); type: cell-based, Leishmania amazonensis; conditions: IC90 of compound, 24 h
Protocol: To study the mechanism of cell death induced in parasites by compounds isolated from Gongolaria abies-marina, a common step was carried out to perform the following five experiments. The promastigotes of Leishmania spp. and epimastigotes of T. cruzi were incubated at the IC90 levels of the compounds (previously calculated) for 24 h at 26 °C. After incubation, the parasites were centrifuged at 3000 rpm for 10 min at 4 °C. The pellets were resuspended following the manufacturer’s instructions for each kit. After the incubation of promastigotes and epimastigotes of the parasites with the IC90 of the compounds, the changes in ATP levels were measured using a Cell Titer-Glo® Luminescent Cell Viability Assay (Promega, WI, USA). The assay was carried out in a white 96-well plate following the manufacturer’s instructions, as previously described by Cartuche et al. (2020). The luminescence was measured using an EnSpire® Multimode Plate Reader (PerkinElmer, Madrid, Spain).

[11] = system: T. cruzi epimastigotes; assay: Mitochondrial membrane potential (JC-1 assay); type: cell-based, Trypanosoma cruzi; conditions: IC90, 24 h
Protocol: To study the mechanism of cell death induced in parasites by compounds isolated from Gongolaria abies-marina, a common step was carried out to perform the following five experiments. The promastigotes of Leishmania spp. and epimastigotes of T. cruzi were incubated at the IC90 levels of the compounds (previously calculated) for 24 h at 26 °C. After incubation, the parasites were centrifuged at 3000 rpm for 10 min at 4 °C. The pellets were resuspended following the manufacturer’s instructions for each kit. A JC-1 Mitochondrial Membrane Potential Assay Kit® (Cayman Chemical, Ann Arbor, MI, USA) was used to analyze variations in the mitochondrial membrane potential of the parasites after incubation at the IC90 levels of the compounds. After centrifugation, the parasites were resuspended in the same buffer and transferred to a black 96-well plate. JC-1 was added following the manufacturer’s instructions as also described by López-Arencibia et al. (2020). Green and red fluorescence was measured using an EnSpire® Multimode Plate Reader (PerkinElmer, Madrid, Spain).

[12] = listed as 6Z-1′-methoxyamentadione
[13] = listed as 6Z-1′-methoxyamentadione (3)

For 3R-tetraprenyltoluquinone, the IC50 [1] is given as 25 µM and the IC50 [2] is given as 44.9 µM.

In the case of 3S-tetraprenyltoluquinone, the IC50 [1] is given as 88 µM and the IC50 [2] is given as 94.4 µM.

In the case of `COc1c(C)cc(O)cc1C/C=C(\C)CC(=O)/C=C(\C)CCC[C@@H](C)C(=O)/C=C/C(C)(C)O` [1′-Methoxyamentadione (4), 1′-methoxyamentadione], the “Selectivity index (CC50/IC50), amastigotes of L. amazonensis” value (“Selectivity index … of L. amazonensis” below) [3] is reported as 0.96, the IC50 [3] is reported as 27.6 ± 1.68 µM and the CC50 at 24 h [4] is reported as 26.4 ± 2.27 µM. For the same molecule, the “Selectivity index (CC50/IC50), L. donovani” value [5] was 0.21, the IC50 [5] was 126.5 ± 1.15 µM and the “Selectivity index (CC50/IC50), T. cruzi” value [6] was 5.36. The IC50 [6] was 4.93 ± 0.55 µM, the “Ultrastructural and morphological alterations (TEM)” value ([7]; listed as 1′-methoxyamentadione) was “mitochondrial expansion (M), chromatin condensation in the nucleus (*), intense vacuolization (V), the formation of some autophagy vacuoles” and the “Ultrastructural and morphological alterations (TEM)” value ([7]; listed as 1′-methoxyamentadione (4)) was “alteration of the flagellar pocket”. The “Ultrastructural and morphological alterations (TEM)” value ([7]; listed as 4) was “showed two nuclei”, the “Ultrastructural and morphological alterations (TEM)” value [8] was “morphological mitochondrial (M) and kinetoplast (K) alterations, chromatin condensation in the nucleus (*), intense vacuolization (V) and the formation of some autophagy vacuoles” and the “Selectivity index (CC50/IC50), L. amazonensis” value [9] was 5.41. For the same molecule, the IC50 [9] was roughly 4.88 µM.

With `COc1c(C)cc(O)cc1C/C=C(\C)CC(=O)/C=C(/C)CCC[C@@H](C)C(=O)/C=C/C(C)(C)O` [6Z-1′-Methoxyamentadione (3), 6Z-1′-methoxyamentadione] the “Selectivity index … of L. amazonensis” value [3] was 1.66, the IC50 [3] was 16.2 ± 2.61 µM and the “ATP levels relative to negative control” value [10] was “greatest effect”. For the same molecule, the CC50 at 24 h [4] was 26.8 ± 4.06 µM, the “Selectivity index (CC50/IC50), L. donovani” value [5] was 0.27 and the IC50 [5] was 97.9 ± 5.32 µM. The “Selectivity index (CC50/IC50), T. cruzi” value [6] was 8.19, the IC50 [6] was 3.26 ± 0.11 µM and the “Ultrastructural and morphological alterations (TEM)” value [7, 12] was “mitochondrial expansion (M), chromatin condensation in the nucleus (*), intense vacuolization (V), the formation of some autophagy vacuoles”. For the same molecule, the “Ultrastructural and morphological alterations (TEM)” value [7, 13] was “alteration of the flagellar pocket”, the “Ultrastructural and morphological alterations (TEM)” value [8, 12] was “morphological mitochondrial (M) and kinetoplast (K) alterations, chromatin condensation in the nucleus (*), intense vacuolization (V) and the formation of some autophagy vacuoles” and the “Ultrastructural and morphological alterations (TEM)” value [8, 13] was “Morphological alterations of the mitochondria and kinetoplast”. For the same molecule, the “Selectivity index (CC50/IC50), L. amazonensis” value [9] was 5.49 and the IC50 [9] was roughly 4.88 µM.

For `O=C(Cn1ccnc1[N+](=O)[O-])NCc1ccccc1` [Benznidazole, benznidazole, reference compound], the “Selectivity index (CC50/IC50), T. cruzi” value [6] was 57.51 and the IC50 [6] was 6.95 ± 0.5 µM.

In the case of `COc1c(C)cc(O)cc1C/C=C(\C)CC(=O)C/C(C)=C/CC[C@@H](C)C(=O)/C=C/C(C)(C)O` [Gongolarone B (2), gongolarone B], the “Selectivity index … of L. amazonensis” value [3] is reported as 1.50, the IC50 [3] is reported as 16.2 ± 1.9 µM and the “ATP levels relative to negative control” value [10] is reported as “decreased”. The CC50 at 24 h [4] was 24.4 ± 3.98 µM, the “Activity against L. donovani (in words)” value [5] was “lost its activity” and the “Selectivity index (CC50/IC50), T. cruzi” value [6] was 8.36. For the same molecule, the IC50 [6] was 2.92 ± 0.25 µM, the “Ultrastructural and morphological alterations (TEM)” value [7] was “mitochondrial expansion (M), chromatin condensation in the nucleus (*), intense vacuolization (V), the formation of some autophagy vacuoles” and the “Ultrastructural and morphological alterations (TEM)” value ([8]; listed as gongolarone B) was “morphological mitochondrial (M) and kinetoplast (K) alterations, chromatin condensation in the nucleus (*), intense vacuolization (V) and the formation of some autophagy vacuoles”. For the same molecule, the “Ultrastructural and morphological alterations (TEM)” value ([8]; listed as gongolarone B (2)) was “Morphological alterations of the mitochondria and kinetoplast”, the “Selectivity index (CC50/IC50), L. amazonensis” value [9] was 3.79 and the IC50 [9] was 6.45 ± 0.44 µM. For the same molecule, the “Mitochondrial membrane potential changes (JC-1)” value [11] was “greatest decrease”.

For `CCCCCCCCCCCCCCCCOP(=O)([O-])OCC[N+](C)(C)C` [Miltefosine, miltefosine, reference compound], the “Selectivity index … of L. amazonensis” value [3] was 23.16, the IC50 [3] was 3.12 ± 0.12 µM and the CC50 at 24 h [4] was 72.2 ± 1.25 µM. The “Selectivity index (CC50/IC50), L. donovani” value [5] was 21.80, the IC50 [5] was 3.31 ± 0.11 µM and the “Selectivity index (CC50/IC50), L. amazonensis” value [9] was 11.10. The IC50 [9] was 6.48 ± 0.1 µM.
